Article PMC4685510, “A Cell Biologist’s Field Guide to Aurora Kinase Inhibitors” (Frontiers in Oncology, 2015)
Where two headings read alike, the source gives them in different places.

Tests used:
Experiment in all cases: biochemical
Assay type in all cases: biochemical
[1] = biological target: 363 human kinases (including Aurora A/B/C) (Homo sapiens, UniProt Q8NEV4); settings: MYO3A; for remaining activity at 0.1 µM: 100 nM; for remaining activity at 0.1 µM / remaining activity at 0.5 µM: read-out: % Enzyme Activity (relative to DMSO controls)
Source text: (§1) However, the Aurora A/B selectivity ratios derived from our in vitro and in vivo data can be compared to prioritize inhibitors.

[2] = biological target: 363 human kinases (including Aurora A/B/C) (Homo sapiens, UniProt Q5VT25); settings: MRCKa/CDC42BPA; for remaining activity at 0.1 µM: 100 nM; for remaining activity at 0.1 µM / remaining activity at 0.5 µM: read-out: % Enzyme Activity (relative to DMSO controls)
363 human kinases (including Aurora A/B/C) (Homo sapiens, UniProt Q5VT25), sequence (Q5VT25 whole entry): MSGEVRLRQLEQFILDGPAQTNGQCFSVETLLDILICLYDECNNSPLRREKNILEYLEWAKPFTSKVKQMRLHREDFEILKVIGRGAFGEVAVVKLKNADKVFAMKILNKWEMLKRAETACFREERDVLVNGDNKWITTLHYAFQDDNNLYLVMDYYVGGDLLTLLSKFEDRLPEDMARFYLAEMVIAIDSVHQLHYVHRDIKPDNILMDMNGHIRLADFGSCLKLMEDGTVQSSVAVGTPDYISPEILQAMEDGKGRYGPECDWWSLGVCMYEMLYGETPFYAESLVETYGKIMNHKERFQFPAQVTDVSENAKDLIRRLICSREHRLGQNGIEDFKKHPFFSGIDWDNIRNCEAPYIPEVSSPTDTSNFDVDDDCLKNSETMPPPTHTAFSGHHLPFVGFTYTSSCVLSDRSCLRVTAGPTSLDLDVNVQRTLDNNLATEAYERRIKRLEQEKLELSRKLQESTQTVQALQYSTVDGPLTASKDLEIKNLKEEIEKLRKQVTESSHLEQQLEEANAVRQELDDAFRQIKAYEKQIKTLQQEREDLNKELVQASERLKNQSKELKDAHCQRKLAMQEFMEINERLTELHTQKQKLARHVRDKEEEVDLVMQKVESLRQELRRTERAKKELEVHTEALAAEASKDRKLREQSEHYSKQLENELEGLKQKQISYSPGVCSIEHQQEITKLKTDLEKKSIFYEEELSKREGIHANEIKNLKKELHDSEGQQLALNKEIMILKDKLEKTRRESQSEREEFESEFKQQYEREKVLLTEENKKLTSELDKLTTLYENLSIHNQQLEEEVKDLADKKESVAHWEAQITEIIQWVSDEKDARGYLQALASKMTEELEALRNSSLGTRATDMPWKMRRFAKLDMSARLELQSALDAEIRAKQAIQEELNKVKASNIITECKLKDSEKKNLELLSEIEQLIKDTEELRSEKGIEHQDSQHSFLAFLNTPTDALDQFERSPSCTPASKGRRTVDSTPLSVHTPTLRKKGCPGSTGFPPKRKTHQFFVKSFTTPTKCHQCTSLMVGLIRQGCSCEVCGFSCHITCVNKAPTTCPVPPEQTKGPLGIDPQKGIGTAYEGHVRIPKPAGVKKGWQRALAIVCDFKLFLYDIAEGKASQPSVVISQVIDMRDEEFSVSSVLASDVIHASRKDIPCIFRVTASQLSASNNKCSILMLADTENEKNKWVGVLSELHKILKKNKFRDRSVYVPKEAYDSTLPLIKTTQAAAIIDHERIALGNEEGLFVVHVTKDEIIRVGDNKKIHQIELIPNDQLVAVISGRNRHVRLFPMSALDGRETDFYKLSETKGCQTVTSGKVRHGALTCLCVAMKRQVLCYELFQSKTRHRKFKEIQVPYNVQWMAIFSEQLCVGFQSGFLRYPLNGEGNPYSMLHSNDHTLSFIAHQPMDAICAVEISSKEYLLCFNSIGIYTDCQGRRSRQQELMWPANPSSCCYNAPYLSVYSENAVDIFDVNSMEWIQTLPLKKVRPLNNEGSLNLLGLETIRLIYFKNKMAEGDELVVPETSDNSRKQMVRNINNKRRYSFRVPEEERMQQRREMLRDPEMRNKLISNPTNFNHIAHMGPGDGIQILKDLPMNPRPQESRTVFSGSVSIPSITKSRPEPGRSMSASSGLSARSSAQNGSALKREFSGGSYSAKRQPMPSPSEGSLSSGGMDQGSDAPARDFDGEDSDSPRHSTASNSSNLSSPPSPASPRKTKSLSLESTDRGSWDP
Source text: as §1

[3] = biological target: T1, 363 human kinases (including Aurora A/B/C) (Homo sapiens, UniProt Q8TF76); settings: Haspin; for remaining activity at 0.1 µM: 100 nM; for remaining activity at 0.1 µM / remaining activity at 0.5 µM: read-out: % Enzyme Activity (relative to DMSO controls)
T1 sequence (Q8TF76 1-798): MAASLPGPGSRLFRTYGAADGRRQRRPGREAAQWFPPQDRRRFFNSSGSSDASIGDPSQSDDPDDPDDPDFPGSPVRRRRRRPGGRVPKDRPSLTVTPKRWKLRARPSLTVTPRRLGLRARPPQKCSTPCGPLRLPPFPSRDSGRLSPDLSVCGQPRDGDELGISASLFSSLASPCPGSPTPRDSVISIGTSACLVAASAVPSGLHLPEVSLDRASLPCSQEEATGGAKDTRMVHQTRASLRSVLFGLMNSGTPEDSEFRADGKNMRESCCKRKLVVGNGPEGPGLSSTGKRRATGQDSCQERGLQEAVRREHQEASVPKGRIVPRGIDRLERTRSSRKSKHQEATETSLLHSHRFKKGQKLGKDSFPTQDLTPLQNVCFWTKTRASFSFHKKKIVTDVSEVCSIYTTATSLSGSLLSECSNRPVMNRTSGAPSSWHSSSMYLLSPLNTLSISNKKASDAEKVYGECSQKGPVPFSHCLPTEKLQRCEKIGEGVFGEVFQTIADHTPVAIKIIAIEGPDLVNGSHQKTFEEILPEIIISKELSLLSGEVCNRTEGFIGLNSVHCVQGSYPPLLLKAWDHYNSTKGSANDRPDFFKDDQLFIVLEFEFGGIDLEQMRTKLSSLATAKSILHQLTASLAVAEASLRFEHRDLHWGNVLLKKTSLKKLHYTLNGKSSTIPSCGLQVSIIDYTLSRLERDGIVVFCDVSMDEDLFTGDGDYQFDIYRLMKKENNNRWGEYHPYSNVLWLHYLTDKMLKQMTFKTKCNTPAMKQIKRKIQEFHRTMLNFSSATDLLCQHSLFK
Source text: as §1

[4] = biological target: 363 human kinases (including Aurora A/B/C) (Homo sapiens, UniProt P54756); settings: EPHA5, [ATP] 30 µM; for remaining activity at 0.1 µM: 100 nM; for remaining activity at 0.1 µM / remaining activity at 0.5 µM: read-out: % Enzyme Activity (relative to DMSO controls)
363 human kinases (including Aurora A/B/C) (Homo sapiens, UniProt P54756), sequence (P54756 25-1037): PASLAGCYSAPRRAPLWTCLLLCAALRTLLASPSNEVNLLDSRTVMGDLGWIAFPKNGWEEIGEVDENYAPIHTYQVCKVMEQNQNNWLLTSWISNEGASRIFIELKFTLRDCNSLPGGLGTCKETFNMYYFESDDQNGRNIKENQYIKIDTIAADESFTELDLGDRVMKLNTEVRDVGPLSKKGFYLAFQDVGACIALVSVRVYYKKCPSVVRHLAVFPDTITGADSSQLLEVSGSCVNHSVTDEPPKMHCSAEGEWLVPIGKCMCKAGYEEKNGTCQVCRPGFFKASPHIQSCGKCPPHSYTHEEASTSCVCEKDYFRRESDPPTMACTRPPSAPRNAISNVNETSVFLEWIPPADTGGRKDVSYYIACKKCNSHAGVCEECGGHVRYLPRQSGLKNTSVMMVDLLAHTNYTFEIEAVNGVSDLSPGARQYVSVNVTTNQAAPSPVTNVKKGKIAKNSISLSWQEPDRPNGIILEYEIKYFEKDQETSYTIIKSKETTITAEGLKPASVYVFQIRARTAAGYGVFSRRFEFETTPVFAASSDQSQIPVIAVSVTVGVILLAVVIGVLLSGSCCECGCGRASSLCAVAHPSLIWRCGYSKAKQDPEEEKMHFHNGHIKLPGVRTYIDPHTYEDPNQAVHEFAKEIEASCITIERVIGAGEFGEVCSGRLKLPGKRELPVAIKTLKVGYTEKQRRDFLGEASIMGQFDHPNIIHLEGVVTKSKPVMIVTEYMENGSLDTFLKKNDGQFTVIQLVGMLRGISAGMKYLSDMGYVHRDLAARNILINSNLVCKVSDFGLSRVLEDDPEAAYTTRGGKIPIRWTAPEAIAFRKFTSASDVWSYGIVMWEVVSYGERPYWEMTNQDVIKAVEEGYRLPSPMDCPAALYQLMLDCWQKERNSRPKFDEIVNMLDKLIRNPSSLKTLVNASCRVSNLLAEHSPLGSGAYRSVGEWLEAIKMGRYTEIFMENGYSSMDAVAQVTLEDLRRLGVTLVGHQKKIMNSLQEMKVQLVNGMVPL
Source text: as §1

[5] = biological target: T2, 363 human kinases (including Aurora A/B/C) (Homo sapiens, UniProt Q8TD08); settings: ERK7/MAPK15, [ATP] 10 µM; for remaining activity at 0.1 µM: 100 nM; for remaining activity at 0.1 µM / remaining activity at 0.5 µM: read-out: % Enzyme Activity (relative to DMSO controls)
T2 sequence (Q8TD08 1-544): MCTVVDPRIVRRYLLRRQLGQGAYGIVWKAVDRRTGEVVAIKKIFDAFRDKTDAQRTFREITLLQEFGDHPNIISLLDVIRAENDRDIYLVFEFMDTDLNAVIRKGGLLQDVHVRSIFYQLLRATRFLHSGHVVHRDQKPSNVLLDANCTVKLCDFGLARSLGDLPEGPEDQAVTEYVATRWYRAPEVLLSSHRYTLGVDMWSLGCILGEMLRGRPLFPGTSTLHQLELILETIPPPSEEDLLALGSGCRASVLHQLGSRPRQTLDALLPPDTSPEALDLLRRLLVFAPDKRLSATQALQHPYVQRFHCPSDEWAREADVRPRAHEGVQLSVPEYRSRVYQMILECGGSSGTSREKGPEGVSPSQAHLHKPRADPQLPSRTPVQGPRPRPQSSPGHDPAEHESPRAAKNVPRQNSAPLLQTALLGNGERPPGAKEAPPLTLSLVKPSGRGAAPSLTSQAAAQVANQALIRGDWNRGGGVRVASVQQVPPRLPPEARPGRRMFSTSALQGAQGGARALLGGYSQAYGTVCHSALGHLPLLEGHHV
Source text: as §1

[6] = biological target: 363 human kinases (including Aurora A/B/C) (Homo sapiens, UniProt P29597); settings: TYK2; for remaining activity at 0.1 µM: 100 nM; for remaining activity at 0.1 µM / remaining activity at 0.5 µM: read-out: % Enzyme Activity (relative to DMSO controls)
363 human kinases (including Aurora A/B/C) (Homo sapiens, UniProt P29597), sequence (P29597 whole entry): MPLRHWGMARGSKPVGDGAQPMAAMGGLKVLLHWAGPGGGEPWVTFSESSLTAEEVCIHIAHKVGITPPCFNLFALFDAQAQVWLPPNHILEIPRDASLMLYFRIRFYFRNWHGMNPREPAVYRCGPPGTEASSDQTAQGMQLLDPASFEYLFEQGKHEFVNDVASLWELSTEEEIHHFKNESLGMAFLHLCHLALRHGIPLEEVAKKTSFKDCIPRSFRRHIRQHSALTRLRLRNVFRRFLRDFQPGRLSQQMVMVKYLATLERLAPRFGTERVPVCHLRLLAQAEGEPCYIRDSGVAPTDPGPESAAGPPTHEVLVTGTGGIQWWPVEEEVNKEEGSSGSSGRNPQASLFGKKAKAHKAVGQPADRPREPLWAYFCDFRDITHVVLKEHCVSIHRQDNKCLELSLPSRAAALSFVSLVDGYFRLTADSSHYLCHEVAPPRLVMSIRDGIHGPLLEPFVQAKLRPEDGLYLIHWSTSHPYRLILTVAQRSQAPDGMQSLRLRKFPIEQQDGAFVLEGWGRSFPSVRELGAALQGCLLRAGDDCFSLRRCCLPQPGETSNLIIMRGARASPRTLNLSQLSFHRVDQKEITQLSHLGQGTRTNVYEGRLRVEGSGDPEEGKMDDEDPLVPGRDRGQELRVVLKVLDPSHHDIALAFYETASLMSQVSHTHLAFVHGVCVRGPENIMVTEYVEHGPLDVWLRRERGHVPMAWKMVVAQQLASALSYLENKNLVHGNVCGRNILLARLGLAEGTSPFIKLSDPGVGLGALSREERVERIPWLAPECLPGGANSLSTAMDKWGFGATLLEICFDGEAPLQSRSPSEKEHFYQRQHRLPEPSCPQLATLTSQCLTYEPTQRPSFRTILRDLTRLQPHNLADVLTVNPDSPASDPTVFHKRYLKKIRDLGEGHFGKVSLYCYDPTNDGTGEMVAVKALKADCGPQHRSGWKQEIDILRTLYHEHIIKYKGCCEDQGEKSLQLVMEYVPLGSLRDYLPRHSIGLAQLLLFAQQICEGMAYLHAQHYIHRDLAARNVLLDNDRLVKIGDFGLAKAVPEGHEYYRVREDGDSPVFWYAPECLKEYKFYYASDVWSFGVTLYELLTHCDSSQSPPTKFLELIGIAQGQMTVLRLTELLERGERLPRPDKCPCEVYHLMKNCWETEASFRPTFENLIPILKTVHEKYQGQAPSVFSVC
Source text: as §1

[7] = biological target: 363 human kinases (including Aurora A/B/C) (Homo sapiens, UniProt P53671); settings: LIMK2; for remaining activity at 0.1 µM: 100 nM; for remaining activity at 0.1 µM / remaining activity at 0.5 µM: read-out: % Enzyme Activity (relative to DMSO controls)
363 human kinases (including Aurora A/B/C) (Homo sapiens, UniProt P53671), sequence (P53671 whole entry): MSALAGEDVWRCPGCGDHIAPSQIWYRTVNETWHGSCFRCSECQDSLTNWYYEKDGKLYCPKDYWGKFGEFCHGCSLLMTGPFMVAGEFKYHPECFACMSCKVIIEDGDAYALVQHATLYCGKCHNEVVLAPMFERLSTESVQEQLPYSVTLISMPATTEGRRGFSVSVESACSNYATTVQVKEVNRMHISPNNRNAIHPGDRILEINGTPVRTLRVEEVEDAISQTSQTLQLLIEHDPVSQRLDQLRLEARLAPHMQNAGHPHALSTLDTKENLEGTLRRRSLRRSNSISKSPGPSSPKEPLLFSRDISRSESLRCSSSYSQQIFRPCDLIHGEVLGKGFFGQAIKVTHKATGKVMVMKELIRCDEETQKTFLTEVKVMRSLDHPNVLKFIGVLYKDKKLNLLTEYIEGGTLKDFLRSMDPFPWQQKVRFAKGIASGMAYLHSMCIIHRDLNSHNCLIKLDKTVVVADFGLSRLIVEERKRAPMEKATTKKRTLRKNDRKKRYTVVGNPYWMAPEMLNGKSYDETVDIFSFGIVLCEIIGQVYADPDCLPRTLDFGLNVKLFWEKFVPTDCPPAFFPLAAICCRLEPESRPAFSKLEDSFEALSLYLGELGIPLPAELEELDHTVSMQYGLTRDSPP
Source text: as §1

[8] = biological target: 363 human kinases (including Aurora A/B/C) (Homo sapiens, UniProt Q96GD4); settings: for remaining activity at 0.1 µM / remaining activity at 0.5 µM: read-out: % Enzyme Activity (relative to DMSO controls)
363 human kinases (including Aurora A/B/C) (Homo sapiens, UniProt Q96GD4), sequence (Q96GD4 whole entry): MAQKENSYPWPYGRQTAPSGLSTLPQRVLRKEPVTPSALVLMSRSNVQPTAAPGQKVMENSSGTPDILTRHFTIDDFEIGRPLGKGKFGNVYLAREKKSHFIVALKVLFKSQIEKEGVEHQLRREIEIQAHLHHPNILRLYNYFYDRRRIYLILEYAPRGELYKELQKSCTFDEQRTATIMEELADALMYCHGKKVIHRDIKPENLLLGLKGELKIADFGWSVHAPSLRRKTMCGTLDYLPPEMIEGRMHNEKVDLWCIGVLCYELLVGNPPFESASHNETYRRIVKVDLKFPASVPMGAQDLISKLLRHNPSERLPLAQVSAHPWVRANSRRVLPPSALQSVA
Source text: as §1

[9] = biological target: T3, 363 human kinases (including Aurora A/B/C) (Homo sapiens, UniProt Q13188); settings: MST2/STK3; for remaining activity at 0.1 µM: 100 nM; for remaining activity at 0.1 µM / remaining activity at 0.5 µM: read-out: % Enzyme Activity (relative to DMSO controls)
T3 sequence (Q13188 1-491): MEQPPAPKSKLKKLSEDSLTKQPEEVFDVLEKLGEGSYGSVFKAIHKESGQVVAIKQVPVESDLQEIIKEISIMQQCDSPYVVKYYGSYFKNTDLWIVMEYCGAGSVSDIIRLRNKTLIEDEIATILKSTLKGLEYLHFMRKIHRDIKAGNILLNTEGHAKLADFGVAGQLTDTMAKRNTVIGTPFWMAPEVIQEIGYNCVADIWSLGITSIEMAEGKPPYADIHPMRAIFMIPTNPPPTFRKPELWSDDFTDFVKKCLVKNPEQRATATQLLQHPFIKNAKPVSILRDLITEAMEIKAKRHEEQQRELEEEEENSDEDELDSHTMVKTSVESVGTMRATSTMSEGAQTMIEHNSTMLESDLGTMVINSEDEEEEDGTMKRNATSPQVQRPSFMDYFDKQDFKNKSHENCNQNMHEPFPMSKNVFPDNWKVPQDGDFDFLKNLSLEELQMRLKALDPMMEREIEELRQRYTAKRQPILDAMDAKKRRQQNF
Source text: as §1

Work on `O=C(O)[C@]1(Cc2cccc(Nc3nccs3)n2)CC[C@@H](Oc2cccc(Cl)c2F)CC1` [MK-5108] yielded a remaining activity at 0.1 µM [1] of 90.8%, a remaining activity at 0.5 µM ([1]; 500 nM) of 131% and a remaining activity at 0.1 µM [2] of 93.7%. It also gave a remaining activity at 0.5 µM ([2]; 500 nM) of 103%, a remaining activity at 0.1 µM [3] of 101% and a remaining activity at 0.5 µM ([3]; 500 nM) of 74%. It also gave a remaining activity at 0.1 µM [4] of 48.6%, a remaining activity at 0.5 µM ([4]; 500 nM) of 24.4% and a remaining activity at 0.1 µM [5] of 83.7%. The remaining activity at 0.5 µM ([5]; 500 nM) was 64.2%, the remaining activity at 0.1 µM [6] was 52.3% and the remaining activity at 0.5 µM ([6]; 500 nM) was 17%. The remaining activity at 0.1 µM [7] was 92.8%, the remaining activity at 0.5 µM ([7]; 500 nM) was 76.2% and the remaining activity at 0.1 µM [8] was 9.6%. It also gave a remaining activity at 0.5 µM [8] of 2.85%, a remaining activity at 0.1 µM [9] of 87.7% and a remaining activity at 0.5 µM ([9]; 500 nM) of 48.4%.
For `O=C(c1cccc(Cl)c1F)N1CCN(Cc2cccc(Nc3nccs3)n2)CC1` [MK-8745], the “% Enzyme Activity (relative to DMSO controls)” value ([1]; 500 nM) was 66.28%, the remaining activity at 0.5 µM ([1]; 500 nM) was 71.2% and the “% Enzyme Activity (relative to DMSO controls)” value ([2]; 500 nM) was 103.58%. For the same compound, the remaining activity at 0.5 µM ([2]; 500 nM) was 104%, the “% Enzyme Activity (relative to DMSO controls)” value ([3]; 500 nM) was 100.89% and the remaining activity at 0.5 µM ([3]; 500 nM) was 102%. The “% Enzyme Activity (relative to DMSO controls)” value ([4]; 500 nM) was 84.08%, the remaining activity at 0.5 µM ([4]; 500 nM) was 84.2% and the “% Enzyme Activity (relative to DMSO controls)” value ([5]; 500 nM) was 85.14%. The remaining activity at 0.5 µM ([5]; 500 nM) was 92.2%, the “% Enzyme Activity (relative to DMSO controls)” value ([6]; 500 nM) was 67.55% and the remaining activity at 0.5 µM ([6]; 500 nM) was 67.8%. The “% Enzyme Activity (relative to DMSO controls)” value ([7]; 500 nM) was 97.95%, the remaining activity at 0.5 µM ([7]; 500 nM) was 98.4% and the “% Enzyme Activity (relative to DMSO controls)” value ([8]; Aurora B, [ATP] 100 µM, 500 nM) was 59.14%. For the same compound, the remaining activity at 0.5 µM ([8]; Aurora B, [ATP] 100 µM, 500 nM) was 62.3%, the “% Enzyme Activity (relative to DMSO controls)” value ([9]; 500 nM) was 46.05% and the remaining activity at 0.5 µM ([9]; 500 nM) was 46.6%.
Work on `CCn1cc(-c2ccnc3[nH]c(-c4cccc(CN(C)C)c4)cc23)c(-c2ccc(NC(=O)N(C)C)cc2)n1` [GSK1070916] yielded a remaining activity at 0.1 µM [1] of 92.9%, a remaining activity at 0.1 µM [2] of 108% and a remaining activity at 0.1 µM [3] of 86.9%. The remaining activity at 0.1 µM [4] was 101%, the remaining activity at 0.1 µM [5] was 102% and the remaining activity at 0.1 µM [6] was 87%. It also gave a remaining activity at 0.1 µM [7] of 103%, a remaining activity at 0.1 µM [8] of 12.8% and a remaining activity at 0.1 µM [9] of 91.8%.
